Results taken from US20220348572A1, “BRIDGED HETEROCYCLYL-SUBSTITUTED PYRIMIDINE COMPOUND, PREPARATION METHOD THEREFOR, AND PHARMACEUTICAL USE THEREOF” (The National Institutes of Pharmaceutical R&D Co., Ltd., priority 2019, published 2022).

How the values were obtained:
[1] = tested on: IFN-2α-stimulated TYK2/JAK1-mediated pathway (pSTAT3); experiment: Inhibition of STAT3 signaling pathway of human whole blood (IFN-2α-induced pSTAT3, flow cytometry); format: cell-based
Experimental: Test Example 3: Inhibition Effect of the Compounds of the Present Invention on STAT3 Signaling Pathway of Human Whole Blood
Sample preparation: The compounds of the present invention and the control were dissolved in DMSO solvent respectively to formulate into 10 mM initial liquid. The maximum concentration of the compound was 10 μM, 3-fold dilution, 10 concentration gradients, and duplicate wells for each concentration gradient.
Experimental process: 20 μL of the compound of the present invention was added to a flow cytometer tube (BD, 352052) containing 180 μL anticoagulant sodium heparin. 20 μL PBS was added to the control. The sample was incubated at 37° C. for 30 min. 2 μL stimulating factor was added and then incubated at 37° C. for 20 min. 1 mL erythrocyte lysate was rapidly added, and the sample was repeatedly inverted 5-10 times or vortexed and then incubated at 37° C. for 10 min. The sample was centrifuged at 600 g for 6-8 min. The supernatant was discarded. The precipitate was vortexed until suspending. The cells were washed with 3 mL PBS and centrifuged at 600 g for 6-8 min. The supernatant was discarded. The precipitate was vortexed until suspending. 1 mL of membrane breaking solution was added, and the system was mixed gently, incubated on ice for 30 min, and centrifuged at 600 g for 6-8 min. The supernatant was discarded. The precipitate was vortexed until suspending. The cells were washed. 3 mL PBS was added. The system was centrifuged at 600 g for 6-8 min. The supernatant was discarded. The precipitate was vortexed untile suspending. The process was repeated twice. 100 μL PBS was added to each staining tube. IFN-2a was added for stimulation, and CD3 and pSTAT3 antibodies […] were added. The system was mixed well, protected from light and incubated at room temperature for 60 min. The cells were washed. 3 mL PBS was added. The system was centrifuged at 600 g for 6-8 min. The supernatant was discarded. The precipitate was vortexed until suspending. The precipitate was suspended in 150 μL in the dark for the flow cytometry analysis. The IC50 (half inhibitory concentration) of the compounds was obtained by using the following non-linear fitting equation:
Y=Bottom+(Top−Bottom)/(1+10^((Log IC50−X)*HillSlope));
X: Log value of the concentration of the compound;
Bottom: The minimum value, Top: The maximum value, HillSlope: Slope
The inhibition effect of by the compounds of the present invention on the IFN-2α-stimulated TYK2/JAK1-mediated pathway is shown in Table 3. IC50 value of 0-100 nM is shown as A, IC50 value of 100-300 nM is shown as B, IC50 value of 300-1000 nM is shown as C, IC50 value which is greater than 1000 nM is shown as D. NT means not tested.

[2] = Pharmacokinetic study in rats after oral administration; format: in vivo, SD rats
Experimental: Experimental Example 5: Pharmacokinetic Studies of the Compounds of Example 1, Example 1-a, Example 1-b and Example 3 in Rats In order to investigate the blood concentration and pharmacokinetic parameters of the compounds of the present invention after oral administration, the corresponding LC/MS/MS assay and plasma treatment methods were developed for the compounds of the Experimental Examples. […] Male SD rats were orally administered at a dose of 5 mg/kg. Blood was orbitally collected and anticoagulated with sodium heparin. The plasma was deproteinated with acetonitrile. The samples were analyzed by LC/MS/MS method. Wherein, AUC<1000 μg/L*h is shown as C, AUC between 1000-2000 μg/L*h is shown as B, AUC>2000 μg/L*h is shown as A; Cmax<600 μg/L is shown as C, Cmax between 600-900 μg/L is shown as B, and Cmax>900 μg/L is shown as A.

JAK1 kinase = molecular target: T1, JAK1 kinase (Homo sapiens, UniProt P23458); experiment: In vitro inhibitory activity on JAK1 kinase (ADP-Glo Kinase Assay); format: biochemical; conditions: JAK1 kinase 4 nM, 1 mM ATP
T1 construct: purchased Invitrogen PV4744
Procedure, shortened: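 JAK1 (4 nM final) preincubated with compound 15 min at 25° C., then substrate mix (1 mM ATP, IRS1 0.05 mg/ml) added for 60 min at 25° C. ADP-Glo luminescence read-out; top concentration 10 μM, 3-fold, 10 points, duplicates; IC50 reported in ranged classes.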

TYK2 kinase = molecular target: T2, TYK2 kinase (Homo sapiens, UniProt P29597); experiment: In vitro inhibitory activity on Tyk2 kinase (ADP-Glo Kinase Assay); format: biochemical; conditions: TYK2 kinase 4 nM, 1 mM ATP
T2 sequence (P29597 897-1187 limits assumed): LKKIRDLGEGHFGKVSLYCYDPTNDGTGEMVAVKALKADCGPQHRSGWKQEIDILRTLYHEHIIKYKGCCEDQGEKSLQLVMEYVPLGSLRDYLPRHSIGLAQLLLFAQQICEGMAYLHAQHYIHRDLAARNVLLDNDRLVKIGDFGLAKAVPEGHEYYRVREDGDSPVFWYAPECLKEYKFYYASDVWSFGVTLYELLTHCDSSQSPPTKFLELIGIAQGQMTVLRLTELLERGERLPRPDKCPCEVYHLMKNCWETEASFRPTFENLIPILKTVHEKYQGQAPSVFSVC
Experimental: Test Example 2: Determination of In Vitro Inhibitory Activity of the Compounds of the Present Invention on Tyk2 Kinase Experimental materials: TYK2 (Invitrogen, PV4790), ATP (Promega, V915B), ADP-Glo Kinase Assay (Promega, V9101), IRS1 (Signalchem, 140-58-1000). Sample preparation: The compounds of the present invention and the control product were dissolved in DMSO solvent respectively to formulate into 10 mM initial liquid. The maximum concentration of the compound was 10 μM, 3-fold dilution, 10 concentration gradients, and duplicate wells for each concentration gradient. Experimental process: 0.1 μL of the compound to be tested was transferred into a 384 reaction plate (PE, 6007290) via Echo and centrifuged at 1000 rpm/min for 1 min. 5 μL TYK2 kinase (final concentration of 4 nM) was transferred into the 384 reaction plate, which was then centrifuged at 1000 rpm/min for 1 min, and incubated at 25° C. for 15 min. 5 μL substrate mixture (1 mM ATP, IRS1 0.05 mg/ml, kinase buffer solution) was transferred into the 384 reaction plate, which was then centrifuged at 1000 rpm/min for 1 min, and incubated at 25° C. for 60 min. 10 μL ADP-Glo was transferred into the 384 reaction plate, which was then centrifuged at 1000 rpm/min for 1 min, and incubated at 25° C. for 40 min. 20 μL test solution was transferred into the 384 reaction plate, which was centrifuged at 1000 rpm/min for 1 min and incubated at 25° C. for 40 min. RLU (Relative luminescence unit) signal was read by using an Envision multifunctional plate reader. The signal intensity was used to characterize the degree of the kinase activity. […] IC50 value of 0-100 nM is shown as A, IC50 value of 100-300 nM is shown as B, IC50 value of 300-1000 nM is shown as C, and IC50 value which is greater than 1000 nM is shown as D. NT means not tested.

[3] = rat, male SD rats, oral 5 mg/kg, plasma

T1 sequence (P23458 866-1154 limits assumed): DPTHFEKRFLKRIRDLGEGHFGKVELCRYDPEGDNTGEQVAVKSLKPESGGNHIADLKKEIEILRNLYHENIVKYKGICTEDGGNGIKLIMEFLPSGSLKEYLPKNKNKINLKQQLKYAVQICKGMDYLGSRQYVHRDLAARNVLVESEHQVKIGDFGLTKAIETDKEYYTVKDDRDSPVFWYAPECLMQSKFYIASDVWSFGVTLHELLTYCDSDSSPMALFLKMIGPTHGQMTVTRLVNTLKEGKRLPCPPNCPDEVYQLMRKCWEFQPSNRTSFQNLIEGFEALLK

Structure (SMILES): Cn1cc(Nc2nccc(C3=C[C@@H]4CC[C@H](C3)N4C(=O)[C@@H]3CC3(F)F)n2)cn1 (single isomer, unassigned) [Compound 1-a]
- IC50 [1]: < 100 nM
- pharmacokinetic parameters (in words) ([2]; oral administration in SD rats): good pharmacokinetic parameters
- AUC(0-t) [2, 3]: 1000 to 2000 ng·h/mL
- Cmax [2, 3]: 600 to 900 ng/mL
- IC50 (JAK1 kinase): < 100 nM
- IC50 (TYK2 kinase): < 100 nM
